Laboratory results taken from patent US20030176445A1, “Substituted 1,4-dihydropyridine compounds as bradykinin antagonists” (Pfizer Inc., priority 1999, published 2003).
Where a name gives a salt, the structure may show the parent alone.

CCCCC1(O)C2CCC1CC(N1CCN(C(=O)CC3=C(C(=O)OC)C(c4c(Cl)cccc4Cl)C(C(=O)OC)=C(CCc4nccs4)N3)CC1)C2 (stereo not drawn) (as salt: hydrochloride) [Example 6, Dimethyl 4-(2,6-dichlorophenyl)-2-[2-[4-(8-butyl-8-hydroxybicyclo[3.2.1]oct-3-yl)-1-piperazinyl]-2-oxoethyl]-6-[2-(1,3-thiazol-2-yl)ethyl]-1,4-dihydro-3,5-pyridinedicarboxylate]
melting point: 174 to 177 °C (dec.)

COC(=O)C1=C(CCc2nccs2)NC(CC(=O)N2CCN(C3CC4CCC(C3)C4(O)C(C)C)CC2)=C(C(=O)OC)C1c1c(Cl)cccc1Cl (stereo not drawn) (as salt: hydrochloride) [Example 7, Dimethyl 4-(2,6-dichlorophenyl)-2-[2-[4-(8-hydroxy-8-isopropylbicyclo[3.2.1]oct-3-yl)-1-piperazinyl]-2-oxoethyl]-6-[2-(1,3-thiazol-2-yl)ethyl]-1,4-dihydro-3,5-pyridinedicarboxylate]
melting point: 178 to 180 °C (dec.)

COC(=O)C1=C(CCc2nccs2)NC(CC(=O)N2CCN(C3CC4CC(=O)CC4C3)CC2)=C(C(=O)OC)C1c1c(Cl)cccc1Cl (stereo not drawn) (as salt: hydrochloride) [Example 10, Dimethyl 4-(2,6-dichlorophenyl)-2-[2-oxo-2-[4-(5-oxooctahydro-2-pentalenyl)-1-piperazinyl]ethyl]-6-(2-(1,3-thiazol-2-yl)ethyl)-1,4-dihydro-3,5-pyridinedicarboxylate]
melting point: 214 to 220 °C (dec.)
